Series [1] concerns Plasmodium falciparum. The series can be described thus: Antiplasmodial activity against chloroquine-sensitive Plasmodium falciparum 3D7 infected in human erythrocytes after 72 hrs by SYBR Green 1 staining based fluorescence assay. The class given is functional, organism-based. As to conditions: 3D7, 72 h.
Series [2] can be described thus: Cytotoxicity against African green monkey Vero cells after 3 days by resazurin dye based fluorescence assay. Format: cell-based. As to conditions: chlorocebus sabaeus.
The test system of series [3] is Plasmodium falciparum. The series can be described thus: Antiplasmodial activity against chloroquine-resistant Plasmodium falciparum K1 infected in human erythrocytes after 72 hrs by SYBR Green 1 staining based fluorescence assay. The class given is functional, organism-based. The note with it: K1, 72 h.
Series [4] in a line: Selectivity index, ratio of CC50 for African green monkey Vero cells to IC50 for chloroquine-sensitive Plasmodium falciparum 3D7 infected in human erythrocytes. The class given is toxicity, cell-based. As to conditions: read-out: Ratio CC50/IC50.
The nature of series [5]: Selectivity index, ratio of CC50 for African green monkey Vero cells to IC50 for chloroquine-resistant Plasmodium falciparum K1 infected in human erythrocytes. The note with it: read-out: Ratio CC50/IC50. Format: toxicity, cell-based.

On to `CC1(C)O[C@H]2O[C@H](Cn3cc(CN4C(=O)/C(=N\Nc5ccc(F)cc5)c5ccccc54)nn3)[C@H](O)[C@H]2O1`, for which the IC50 in series [1] was 3.08 µM; in series [3], 3.99 µM. Also, the CC50 at 72 h in series [2] amounted to 83.8 µM. Further, the selectivity ratio in series [4] amounted to 21.2; in series [5], 21.
The matching figures for `COc1ccc(N/N=C2\C(=O)N(Cc3cn(C[C@H]4O[C@@H]5OC(C)(C)O[C@@H]5[C@H]5OC(C)(C)O[C@H]54)nn3)c3ccccc32)cc1`: 1.64 µM, 2.29 µM, 105 µM, 64.2 and 46.
Take `COc1ccc(N/N=C2\C(=O)N(Cc3cn(O[C@@H]4O[C@H](CO)[C@H](O)[C@H](O)[C@H]4O)nn3)c3ccccc32)cc1`: the IC50 in series [1] was determined as 3.46 µM; in series [3], 5.2 µM. Further, it took 76.2 µM to reach half-maximal cytotoxicity in series [2] (CC50 at 72 h). The values for the selectivity ratio in series [4] and in series [5] were 22 and 14.7, respectively.
For the molecule `CC1(C)O[C@H]2O[C@H](Cn3cc(CN4C(=O)/C(=N\Nc5ccccc5)c5ccccc54)nn3)[C@H](O)[C@H]2O1`, the results for the 50% inhibitory concentration (IC50) in series [1] and in series [3] were 4.67 µM and 4.66 µM, respectively. The molecule further yielded a cytotoxic concentration (CC50) at 72 h in series [2] of 82.1 µM. Moreover, the selectivity ratio in series [4] and in series [5] was 17.6 each time.
For `CC(=O)C[C@H]1O[C@@H](On2cc(CN3C(=O)/C(=N\Nc4ccc(Br)cc4)c4ccccc43)nn2)[C@H](OC(C)=O)[C@@H](OC(C)=O)[C@@H]1OC(C)=O`, the IC50 in series [1] turned out to be 3.79 µM; in series [3], 3.84 µM. This molecule returned a CC50 at 72 h in series [2] of 116 µM. For the same molecule, the selectivity ratio is 30.7 in series [4] and 30.3 in series [5].
Take `O=C1/C(=N\Nc2cccc(Cl)c2)c2ccccc2N1Cc1cn(O[C@@H]2O[C@H](CO)[C@@H](O)[C@H](O)[C@H]2O)nn1`: the IC50 in series [1] is 6.73 µM; in series [3] it was 7.62 µM.
`CCN(CC)CCCC(C)Nc1ccnc2cc(Cl)ccc12` (configuration not stated) [CHLOROQUINE]: in series [2], the CC50 at 72 h was above 500 µM.
As for `CC1(C)O[C@H]2[C@@H](O1)[C@@H](Cn1cc(CN3C(=O)/C(=N\Nc4ccc(Br)cc4)c4ccccc43)nn1)O[C@@H]1OC(C)(C)O[C@@H]12`, the IC50 in series [1] amounted to 1.96 µM; in series [3], 1.61 µM. The same molecule returned a CC50 at 72 h in series [2] of 119 µM. The selectivity ratio in series [4] came out at 60.7; in series [5] it was 73.9.
On to `CC1(C)O[C@H]2[C@@H](O1)[C@@H](Cn1cc(CN3C(=O)C(=O)c4ccccc43)nn1)O[C@@H]1OC(C)(C)O[C@@H]12`, for which the concentration for half-maximal inhibition (IC50) stood at 8.41 µM in series [1] and 7.51 µM in series [3].
For `CC1(C)O[C@H]2O[C@H](Cn3cc(CN4C(=O)/C(=N\Nc5cccc(Cl)c5)c5ccccc54)nn3)[C@H](O)[C@H]2O1`, the IC50 is 4.47 µM in series [1] and 3.42 µM in series [3]. This molecule had a cytotoxic concentration (CC50) at 72 h in series [2] of 70 µM. The selectivity ratio in series [4] came out at 15.7; in series [5], 20.5.
With `CC(=O)C[C@H]1O[C@@H](On2cc(CN3C(=O)/C(=N\Nc4ccc(Br)cc4)c4ccccc43)nn2)[C@H](OC(C)=O)[C@@H](OC(C)=O)[C@H]1OC(C)=O`, the half-inhibitory concentration (IC50) was determined as 2.09 µM in series [1] and 2.91 µM in series [3]. Also, in series [2], the CC50 at 72 h was 83.4 µM. The selectivity ratio in series [4] was 39.9; in series [5] it was 28.6.
For the molecule `O=C1/C(=N\Nc2ccc(F)cc2)c2ccccc2N1Cc1cn(O[C@@H]2O[C@H](CO)[C@@H](O)[C@H](O)[C@H]2O)nn1`, the values for the IC50 in series [1] and in series [3] were 8 µM and 8.53 µM, respectively.
As to `COc1ccc(N/N=C2\C(=O)N(Cc3cn(O[C@@H]4O[C@H](CC(C)=O)[C@H](OC(C)=O)[C@H](OC(C)=O)[C@H]4OC(C)=O)nn3)c3ccccc32)cc1`, the results for the IC50 in series [1] and in series [3] were 1.27 µM and 3.12 µM, respectively. This molecule also displayed a CC50 at 72 h in series [2] of 62.5 µM. Further, the selectivity ratio was found to be 49.2 in series [4] and 20 in series [5].
As for `CC(=O)C[C@H]1O[C@@H](On2cc(CN3C(=O)C(=O)c4ccccc43)nn2)[C@H](OC(C)=O)[C@@H](OC(C)=O)[C@@H]1OC(C)=O`, the IC50 in series [1] was 3.54 µM; in series [3], above 10 µM. Also, half-maximal cytotoxicity in series [2] (CC50 at 72 h) was put at 137 µM. Moreover, the selectivity ratio is 38.6 in series [4] and below 13.7 in series [5].
The corresponding values for `CC1(C)O[C@H]2[C@@H](O1)[C@@H](Cn1cc(CN3C(=O)/C(=N\Nc4ccccc4)c4ccccc43)nn1)O[C@@H]1OC(C)(C)O[C@@H]12` are 3.87 µM, 2.62 µM, 105 µM, 27.2 and 40.2.
The corresponding values for `CC1(C)O[C@H]2[C@@H](O1)[C@@H](Cn1cc(CN3C(=O)/C(=N\Nc4cccc(Cl)c4)c4ccccc43)nn1)O[C@@H]1OC(C)(C)O[C@@H]12` are 3.23 µM, 2.49 µM, 117 µM, 36.2 and 47.
Consider `O=C1/C(=N\Nc2ccc(Br)cc2)c2ccccc2N1Cc1cn(O[C@@H]2O[C@H](CO)[C@@H](O)[C@H](O)[C@H]2O)nn1`, for which the IC50 amounted to 9.34 µM in series [1] and 7.95 µM in series [3].
As for `CC(=O)C[C@H]1O[C@@H](On2cc(CN3C(=O)/C(=N\Nc4ccccc4)c4ccccc43)nn2)[C@H](OC(C)=O)[C@@H](OC(C)=O)[C@@H]1OC(C)=O`, the half-inhibitory concentration (IC50) in series [1] was found to be 3.73 µM; in series [3] it was 7.11 µM. Moreover, in series [2], the CC50 at 72 h is 108 µM. For the same molecule, the selectivity ratio in series [4] turned out to be 28.9; in series [5], 15.1.
Regarding `CC(=O)C[C@H]1O[C@@H](On2cc(CN3C(=O)/C(=N\Nc4ccc(C#N)cc4)c4ccccc43)nn2)[C@H](OC(C)=O)[C@@H](OC(C)=O)[C@H]1OC(C)=O`, the half-inhibitory concentration (IC50) is 3.67 µM in series [1] and 4.28 µM in series [3]. Besides, the half-maximal cytotoxic concentration (CC50) at 72 h in series [2] came out at 75.5 µM. Also, the selectivity ratio in series [4] worked out at 20.6; in series [5] it was 17.6.
On to `CC(=O)C[C@H]1O[C@@H](On2cc(CN3C(=O)/C(=N\Nc4ccc(F)cc4)c4ccccc43)nn2)[C@H](OC(C)=O)[C@@H](OC(C)=O)[C@H]1OC(C)=O`, for which the half-maximal inhibitory concentration (IC50) worked out at 2.44 µM in series [1] and 3 µM in series [3]. Half-maximal cytotoxicity in series [2] (CC50 at 72 h) was put at 78.6 µM. Also, the selectivity ratio in series [4] was found to be 32.2; in series [5], 26.2.
The corresponding values for `N#Cc1ccc(N/N=C2\C(=O)N(Cc3cn(O[C@@H]4O[C@H](CO)[C@H](O)[C@H](O)[C@H]4O)nn3)c3ccccc32)cc1` are 7.65 µM, 3.3 µM, 93.7 µM, 12.2 and 28.4.
Regarding `CC1(C)O[C@H]2[C@@H](O1)[C@@H](Cn1cc(CN3C(=O)/C(=N\Nc4ccc(C#N)cc4)c4ccccc43)nn1)O[C@@H]1OC(C)(C)O[C@@H]12`, the IC50 in series [1] was 3.59 µM; in series [3] it was 2.77 µM. This molecule displayed a CC50 at 72 h in series [2] of 126 µM. The selectivity ratio in series [4] is 34.9.
On to `CC(=O)C[C@H]1O[C@@H](On2cc(CN3C(=O)/C(=N\Nc4cccc(Cl)c4)c4ccccc43)nn2)[C@H](OC(C)=O)[C@@H](OC(C)=O)[C@H]1OC(C)=O`, for which the figures for the half-inhibitory concentration (IC50) in series [1] and in series [3] were 2.47 µM and 1.93 µM, respectively. Besides, the CC50 at 72 h in series [2] worked out at 87.9 µM. Further, the selectivity ratio in series [4] amounted to 35.6; in series [5], 45.5.
On to `COc1ccc(N/N=C2\C(=O)N(Cc3cn(O[C@@H]4O[C@H](CO)[C@@H](O)[C@H](O)[C@H]4O)nn3)c3ccccc32)cc1`, for which the IC50 in series [1] stood at 3.27 µM; in series [3], 4.89 µM. Besides, in series [2], the CC50 at 72 h is 79.6 µM. Moreover, the values for the selectivity ratio in series [4] and in series [5] were 24.4 and 16.3, respectively.
The matching figures for `CC(=O)C[C@H]1O[C@@H](On2cc(CN3C(=O)/C(=N\Nc4ccc(F)cc4)c4ccccc43)nn2)[C@H](OC(C)=O)[C@@H](OC(C)=O)[C@@H]1OC(C)=O`: 2.25 µM, 3.8 µM, 68.7 µM, 30.5 and 18.1.
The matching figures for `CC(=O)C[C@H]1O[C@@H](On2cc(CN3C(=O)/C(=N\Nc4ccccc4)c4ccccc43)nn2)[C@H](OC(C)=O)[C@@H](OC(C)=O)[C@H]1OC(C)=O`: 3.5 µM, 4.13 µM, 65.2 µM, 18.6 and 15.8.
The matching figures for `O=C1/C(=N\Nc2ccccc2)c2ccccc2N1Cc1cn(O[C@@H]2O[C@H](CO)[C@H](O)[C@H](O)[C@H]2O)nn1`: 4.8 µM, 8.68 µM, 83.4 µM, 17.4 and 9.6.
Turning to `CC1(C)O[C@H]2O[C@H](Cn3cc(CN4C(=O)/C(=N\Nc5ccc(C#N)cc5)c5ccccc54)nn3)[C@H](O)[C@H]2O1`, the figures for the half-maximal inhibitory concentration (IC50) in series [1] and in series [3] were 4.79 µM and 3.4 µM, respectively. In addition, in series [2], half-maximal cytotoxicity (CC50 at 72 h) was put at 105 µM. Further, the selectivity ratio worked out at 21.8 in series [4] and 30.8 in series [5].
For `N#Cc1ccc(N/N=C2\C(=O)N(Cc3cn(O[C@@H]4O[C@H](CO)[C@@H](O)[C@H](O)[C@H]4O)nn3)c3ccccc32)cc1`, the IC50 came out at 7.78 µM in series [1] and 7.01 µM in series [3].
With `CC(=O)C[C@H]1O[C@@H](On2cc(CN3C(=O)C(=O)c4ccccc43)nn2)[C@H](OC(C)=O)[C@@H](OC(C)=O)[C@H]1OC(C)=O`, the values for the IC50 in series [1] and in series [3] were 8.4 µM and 8.07 µM, respectively.
